Target: Neuraminidase Flu A
Assay: Neuraminidase inhibition in vitro, Flu A
Format: biochemical, influenza virus A
Text: Compositions of the invention are screened for inhibitory activity against neuraminidase by any of the conventional techniques for evaluating enzyme activity.
(§1) Useful in vitro screens have been described in detail and will not be elaborated here. However, von Itzstein, M. et al.; "Nature", 363(6428):418-423 (1993), in particular page 420, column 2, full paragraph 3, to page 421, column 2, first partial paragraph, describes a suitable in vitro assay of Potier, M.; et al.; "Analyt. Biochem.", 94:287-296 (1979), as modified by Chong, A. K. J.; et al.; "Biochem. Biophys. Acta", 1077:65-71 (1991); and Colman, P. M.; et al.; International Publication No. WO 92/06691 (Int. App. No. PCT/AU90/00501, publication date Apr. 30, 1992) page 34, line 13, to page 35, line 16, describes another useful in vitro screen.

| SMILES | IC50 [nM] |
| --- | --- |
| CC(=O)N[C@H]1[C@H](N(C)C2CCCCC2)C=C(C(=O)O)C[C@@H]1N [Compound 5f] | 200 |
| CC(=O)N[C@H]1[C@H](N2CCCCC2)C=C(C(=O)O)C[C@@H]1N [Compound 5l] | 30 |
| CC(=O)N[C@H]1[C@H](N2CCOCC2)C=C(C(=O)O)C[C@@H]1N [Compound 5m] | 200 |
| CCC(CC)CN(C)[C@@H]1C=C(C(=O)O)C[C@H](N)[C@H]1NC(C)=O [Compound 5d] | 120 |
| CC(=O)N[C@H]1[C@H](N(C)CCc2ccccc2)C=C(C(=O)O)C[C@@H]1N [Compound 5e] | 100 |
| CCCN(CC)[C@@H]1C=C(C(=O)O)C[C@H](N)[C@H]1NC(C)=O [Compound 5g] | 90 |
| CCCN(CCC)[C@@H]1C=C(C(=O)O)C[C@H](N)[C@H]1NC(C)=O [Compound 5i] | 12 |
| CCCN[C@@H]1C=C(C(=O)O)C[C@H](N)[C@H]1NC(C)=O [Compound 12b] | 200 |
| CCC(CC)N[C@@H]1C=C(C(=O)O)C[C@H](N)[C@H]1NC(C)=O [Compound 12a] | 11.5 |
| CCCCN(CC)[C@@H]1C=C(C(=O)O)C[C@H](N)[C@H]1NC(C)=O [Compound 5h] | 85 |
| CC(=O)N[C@H]1[C@H](N2CCCC2)C=C(C(=O)O)C[C@@H]1N [Compound 5k] | 400 |
| CCCN(CC1CC1)[C@@H]1C=C(C(=O)O)C[C@H](N)[C@H]1NC(C)=O [Compound 5j] | 50 |
| CCCCN(C)[C@@H]1C=C(C(=O)O)C[C@H](N)[C@H]1NC(C)=O [Compound 5b] | 180 |
| CCC(CC)N(C)[C@@H]1C=C(C(=O)O)C[C@H](N)[C@H]1NC(C)=O [Compound 5c] | 6 |

Target: Neuraminidase Flu B (Influenza B virus, UniProt P03474)
Sequence (P03474 whole entry): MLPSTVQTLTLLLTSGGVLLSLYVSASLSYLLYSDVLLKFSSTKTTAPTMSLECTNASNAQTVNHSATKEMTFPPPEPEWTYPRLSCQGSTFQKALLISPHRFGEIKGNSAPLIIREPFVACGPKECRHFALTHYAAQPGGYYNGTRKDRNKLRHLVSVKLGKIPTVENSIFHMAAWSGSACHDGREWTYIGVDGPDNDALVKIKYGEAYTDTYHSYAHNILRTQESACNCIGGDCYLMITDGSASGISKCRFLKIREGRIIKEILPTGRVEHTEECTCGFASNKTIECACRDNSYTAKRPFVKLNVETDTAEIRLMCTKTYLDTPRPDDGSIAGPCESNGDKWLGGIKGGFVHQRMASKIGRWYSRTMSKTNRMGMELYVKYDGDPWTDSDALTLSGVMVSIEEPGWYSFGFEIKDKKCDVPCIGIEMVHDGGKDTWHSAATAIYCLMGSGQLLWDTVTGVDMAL
Assay: biochemical
Text: Compositions of the invention are screened for inhibitory activity against neuraminidase by any of the conventional techniques for evaluating enzyme activity. Within the context of the invention, typically compositions are first screened for inhibition of neuraminidase in vitro and compositions showing inhibitory activity are then screened for activity in vivo.
as §1
Enzyme Inhibition: Using the methods of screening in vitro activity described above, the following activities were observed: […]

| SMILES | IC50 [nM] |
| --- | --- |
| CC(=O)N[C@H]1[C@H](N2CCCCC2)C=C(C(=O)O)C[C@@H]1N [Compound 5l] | 3 |

Reference: patent US6111132A, “Compounds and methods for synthesis and therapy” (priority 1998, dated 2000)
